Experimental findings from ChEMBL document CHEMBL1201862, “PubChem BioAssay data set” (2004) are described below.

Each structure is given as a SMILES string. The source made the active and inactive calls. Some results are limits rather than exact numbers.

Test [1] has as its target Metabotropic glutamate receptor 3 (Rattus norvegicus, UniProt P31422). The test is described as follows: mGlu3 negative allosteric modulator potency, dose response, HEK/GIRK cells, thallium flux, rat (AID 651839). In kind it is functional.
The nature of test [2]: CEM21 cell cytotoxicity, dose response, cytotoxicity control, plate reader, dry powder (AID 687026). In kind it is functional, cell-based.
Another test concerns the target Cytochrome P450 2C19 (Homo sapiens, UniProt P33261). The test is described as follows: qHTS Assay for Inhibitors and Substrates of Cytochrome P450 2C19. [Related pubchem assays: 410 ]. In kind it is ADME. To be noted: read-out: Potency.
For another test, the target named is Cytochrome P450 3A4 (Homo sapiens, UniProt P08684). The note with it: Potency.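 Also: confirmatory qHTS run detecting inhibitors and substrates of CYP3A4.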
In test [3] the target is Metabotropic glutamate receptor 5 (Rattus norvegicus, UniProt P31424). The test is described as follows: Identification of a glycine sulfonamide based non-MPEP site positive allosteric potentiator (PAM) of mGlu5 (calcium_assay). In kind it is functional.
The nature of test [4]: Late stage assay provider results from the probe development effort to identify selective inhibitors of heat shock protein 90 (HSP90): Absorbance-based cell proliferation assay in SKBR3 cells. In kind it is functional. To be noted: SK-BR-3.
Test [5] is described as follows: Late stage assay provider results from the probe development effort to identify selective inhibitors of heat shock protein 90 (HSP90): Absorbance-based cell proliferation assay in MCF7 cells. In kind it is functional.
For test [6], the target named is Endoplasmic reticulum aminopeptidase 1 (Homo sapiens, UniProt Q9NZ08). The test is described as follows: ERAP1 aminopeptidase inhibitors, dose response, biochemical, cherry-pick, set 2, plate reader (AID 743314).
Test [7] has as its target T1, High affinity choline transporter 1 (Homo sapiens, UniProt Q9GZV3).
T1 sequence (Q9GZV3 whole entry): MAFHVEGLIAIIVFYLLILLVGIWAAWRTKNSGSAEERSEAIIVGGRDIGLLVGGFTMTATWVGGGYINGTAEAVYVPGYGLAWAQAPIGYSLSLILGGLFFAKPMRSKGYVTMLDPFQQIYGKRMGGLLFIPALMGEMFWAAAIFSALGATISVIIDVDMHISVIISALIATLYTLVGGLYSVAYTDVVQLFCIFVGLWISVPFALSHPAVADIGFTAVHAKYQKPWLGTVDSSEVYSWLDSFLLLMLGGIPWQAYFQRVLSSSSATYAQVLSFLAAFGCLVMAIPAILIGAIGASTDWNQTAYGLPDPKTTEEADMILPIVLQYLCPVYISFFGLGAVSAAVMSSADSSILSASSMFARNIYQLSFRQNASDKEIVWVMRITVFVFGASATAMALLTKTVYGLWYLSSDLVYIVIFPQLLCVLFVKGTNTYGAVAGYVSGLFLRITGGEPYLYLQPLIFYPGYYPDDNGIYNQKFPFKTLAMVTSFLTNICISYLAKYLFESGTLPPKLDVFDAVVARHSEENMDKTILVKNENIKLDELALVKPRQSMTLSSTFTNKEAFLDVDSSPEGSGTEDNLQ
The test is described as follows: CHT inhibitors, dose response, cell-based, 5-point CRC, membrane potential dye (AID 504840). In kind it is functional.

A further test has as its target Large T antigen (Simian virus 40, UniProt P03070). In kind it is functional, Betapolyomavirus macacae.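 Also: Confirmatory-stage PubChem screen for compounds that inhibit SV40 T antigen.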
Test [8] relates to HEK293. The test is described as follows: cells. In kind it is functional, cell-based. To be noted: Homo sapiens.
Test [9] concerns the target T2, Sentrin-specific protease 8 (Homo sapiens, UniProt Q96LD8).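 Also: luminescence read-out of SENP8 inhibition, dose-response confirmation following an ultra-high-throughput screen.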
T2 sequence (Q96LD8 whole entry): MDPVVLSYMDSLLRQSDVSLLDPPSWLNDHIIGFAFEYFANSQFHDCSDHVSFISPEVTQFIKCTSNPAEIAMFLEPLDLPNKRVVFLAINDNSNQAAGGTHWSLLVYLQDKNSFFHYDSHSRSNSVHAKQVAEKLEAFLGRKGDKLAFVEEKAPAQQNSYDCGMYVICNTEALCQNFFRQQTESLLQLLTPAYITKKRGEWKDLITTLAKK
In kind it is functional.

Test [10] concerns HEK293. The test is described as follows: cells. In kind it is functional, cell-based. To be noted: Homo sapiens. This is another data set of the same source.
The target in test [11] is Nucleotide-binding oligomerization domain-containing protein 2 (Homo sapiens, UniProt Q9HC29). The test is described as follows: NOD2 signaling inhibitors, cell-based, luminescence, uHTS, HEK293 (AID 1566). In kind it is functional.
The nature of test [12]: HepG2 cell cytotoxicity, dose response, cytotoxicity control, ATP luminescence, cherry-pick, activator set 2 (AID 1053143). In kind it is functional, cell-based.
Test [13] is described as follows: microbe, parasite or virus in culture. In kind it is functional. The note with it: Mycobacterium tuberculosis.
For test [14], the target named is T3, Sentrin-specific protease 7 (Homo sapiens, UniProt Q9BQF6).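 Also: Luminescence-based dose-response confirmation of ultra-high-throughput screening hits, measuring inhibition of SENP7.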
T3 sequence (Q9BQF6 whole entry): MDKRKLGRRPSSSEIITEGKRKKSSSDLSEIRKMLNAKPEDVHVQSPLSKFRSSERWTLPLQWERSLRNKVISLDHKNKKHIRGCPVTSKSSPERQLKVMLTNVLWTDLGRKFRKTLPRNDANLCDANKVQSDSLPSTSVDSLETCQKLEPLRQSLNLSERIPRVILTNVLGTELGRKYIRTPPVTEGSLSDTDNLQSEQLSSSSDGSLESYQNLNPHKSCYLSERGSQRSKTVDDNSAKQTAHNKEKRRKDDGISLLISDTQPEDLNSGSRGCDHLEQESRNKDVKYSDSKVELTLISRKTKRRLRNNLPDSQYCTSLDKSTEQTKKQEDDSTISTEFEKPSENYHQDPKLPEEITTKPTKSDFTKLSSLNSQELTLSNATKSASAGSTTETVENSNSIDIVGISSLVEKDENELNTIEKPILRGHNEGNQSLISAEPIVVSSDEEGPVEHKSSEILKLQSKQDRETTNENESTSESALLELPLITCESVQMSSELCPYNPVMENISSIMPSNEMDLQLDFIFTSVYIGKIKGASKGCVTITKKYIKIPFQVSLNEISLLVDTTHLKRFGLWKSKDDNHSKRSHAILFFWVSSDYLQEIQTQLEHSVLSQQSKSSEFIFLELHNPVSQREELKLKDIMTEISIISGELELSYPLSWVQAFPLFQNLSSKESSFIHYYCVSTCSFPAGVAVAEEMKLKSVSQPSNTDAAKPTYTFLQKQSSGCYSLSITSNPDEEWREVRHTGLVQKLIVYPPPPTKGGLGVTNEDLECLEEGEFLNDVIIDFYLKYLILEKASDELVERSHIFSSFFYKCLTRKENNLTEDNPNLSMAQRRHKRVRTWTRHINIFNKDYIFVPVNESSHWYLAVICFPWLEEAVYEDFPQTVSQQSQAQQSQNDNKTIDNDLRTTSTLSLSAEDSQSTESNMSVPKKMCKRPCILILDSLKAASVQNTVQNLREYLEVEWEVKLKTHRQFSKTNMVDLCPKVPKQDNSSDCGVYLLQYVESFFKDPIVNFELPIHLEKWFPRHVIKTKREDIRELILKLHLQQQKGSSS
In kind it is functional.

Test [15] deals with HEK293. The test is described as follows: NOD2 signaling inhibitors in MDP-stimulated cells, cell-based, uHTS, luminescence (AID 2001). In kind it is functional. To be noted: Homo sapiens.
The subject of test [16] is HEK293. The test is described as follows: cells. In kind it is functional, cell-based. To be noted: Homo sapiens. The source holds these as a separate data set.
Test [17] addresses T4, Sentrin-specific protease 6 (Homo sapiens, UniProt Q9GZR1).
T4 sequence (Q9GZR1 whole entry): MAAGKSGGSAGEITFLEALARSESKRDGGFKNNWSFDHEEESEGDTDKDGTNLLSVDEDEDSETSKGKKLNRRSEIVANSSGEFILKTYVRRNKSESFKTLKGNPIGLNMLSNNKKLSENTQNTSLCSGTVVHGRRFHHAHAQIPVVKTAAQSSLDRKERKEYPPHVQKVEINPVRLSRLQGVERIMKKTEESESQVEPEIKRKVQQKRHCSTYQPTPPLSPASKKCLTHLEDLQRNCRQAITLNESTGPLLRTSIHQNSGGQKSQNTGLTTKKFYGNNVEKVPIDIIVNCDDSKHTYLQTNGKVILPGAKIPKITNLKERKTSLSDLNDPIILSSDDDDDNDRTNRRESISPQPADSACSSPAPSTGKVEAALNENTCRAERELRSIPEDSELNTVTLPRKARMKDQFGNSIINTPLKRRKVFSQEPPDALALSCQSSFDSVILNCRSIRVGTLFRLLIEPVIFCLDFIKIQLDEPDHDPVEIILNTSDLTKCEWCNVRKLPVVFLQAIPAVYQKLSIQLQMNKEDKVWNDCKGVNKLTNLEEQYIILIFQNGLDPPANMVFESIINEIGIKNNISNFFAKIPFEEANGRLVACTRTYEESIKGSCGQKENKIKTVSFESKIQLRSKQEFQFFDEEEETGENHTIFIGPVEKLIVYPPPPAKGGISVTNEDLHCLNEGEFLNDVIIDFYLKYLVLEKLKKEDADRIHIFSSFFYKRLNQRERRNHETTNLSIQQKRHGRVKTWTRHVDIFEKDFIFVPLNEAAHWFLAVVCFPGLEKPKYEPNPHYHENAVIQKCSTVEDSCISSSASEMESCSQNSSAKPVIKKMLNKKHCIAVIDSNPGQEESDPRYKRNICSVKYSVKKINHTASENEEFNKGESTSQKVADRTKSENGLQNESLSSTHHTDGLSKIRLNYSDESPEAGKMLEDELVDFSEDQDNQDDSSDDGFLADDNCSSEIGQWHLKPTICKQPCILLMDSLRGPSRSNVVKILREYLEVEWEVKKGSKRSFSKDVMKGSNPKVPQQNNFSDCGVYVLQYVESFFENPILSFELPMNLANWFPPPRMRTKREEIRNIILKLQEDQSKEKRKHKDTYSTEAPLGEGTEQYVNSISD
In kind it is functional.

The subject of test [18] is HEK293. The test is described as follows: NOD1 signaling inhibitors, primary screen, cell-based, luminescence, uHTS (AID 1578). To be noted: Homo sapiens. In kind it is functional.
In test [19] the target is T5, Oxysterols receptor LXR-beta (Homo sapiens, UniProt P55055).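 Also: agonist activity at LXR measured by a cell-based luminescence readout across a dose range, run as a counterscreen for daf-12 agonists; HEK293 cells with Gal4-LXR fusion and GAL4-driven luciferase reporter; potency for activation of Gal4-LXR reporter so compounds are agonists.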
T5 sequence (P55055 whole entry): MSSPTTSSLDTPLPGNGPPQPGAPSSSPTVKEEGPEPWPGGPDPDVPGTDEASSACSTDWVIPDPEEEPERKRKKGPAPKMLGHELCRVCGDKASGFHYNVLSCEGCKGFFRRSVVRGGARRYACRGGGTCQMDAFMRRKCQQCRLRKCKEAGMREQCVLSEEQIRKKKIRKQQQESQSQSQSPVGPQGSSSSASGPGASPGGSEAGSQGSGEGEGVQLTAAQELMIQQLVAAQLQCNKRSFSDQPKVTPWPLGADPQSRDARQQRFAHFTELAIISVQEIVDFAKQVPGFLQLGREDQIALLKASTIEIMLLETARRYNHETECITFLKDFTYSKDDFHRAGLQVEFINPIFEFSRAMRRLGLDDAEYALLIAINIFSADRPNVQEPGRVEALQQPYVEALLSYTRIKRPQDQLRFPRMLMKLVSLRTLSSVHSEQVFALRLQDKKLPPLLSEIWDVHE
In kind it is functional, cell-based.

Test [20] concerns the target Potassium channel subfamily K member 9 (Homo sapiens, UniProt Q9NPC2). The test is described as follows: TASK3 (KCNK9) channel inhibitors, thallium flux, SAR follow-up, selectivity assay for TASK1 inhibitor project, cell-based, FluxOR thallium flux, concentration-response (AID 652211).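 Also: potency is for inhibitors of the channel.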 In kind it is functional.
Test [21] concerns the target Potassium channel subfamily K member 3 (Homo sapiens, UniProt O14649). The test is described as follows: TASK1 (KCNK3) potassium channel inhibitors, SAR follow-up, CHO cells, FluxOR thallium flux (AID 652212). In kind it is functional.

Large T antigen, sequence (P03070 whole entry): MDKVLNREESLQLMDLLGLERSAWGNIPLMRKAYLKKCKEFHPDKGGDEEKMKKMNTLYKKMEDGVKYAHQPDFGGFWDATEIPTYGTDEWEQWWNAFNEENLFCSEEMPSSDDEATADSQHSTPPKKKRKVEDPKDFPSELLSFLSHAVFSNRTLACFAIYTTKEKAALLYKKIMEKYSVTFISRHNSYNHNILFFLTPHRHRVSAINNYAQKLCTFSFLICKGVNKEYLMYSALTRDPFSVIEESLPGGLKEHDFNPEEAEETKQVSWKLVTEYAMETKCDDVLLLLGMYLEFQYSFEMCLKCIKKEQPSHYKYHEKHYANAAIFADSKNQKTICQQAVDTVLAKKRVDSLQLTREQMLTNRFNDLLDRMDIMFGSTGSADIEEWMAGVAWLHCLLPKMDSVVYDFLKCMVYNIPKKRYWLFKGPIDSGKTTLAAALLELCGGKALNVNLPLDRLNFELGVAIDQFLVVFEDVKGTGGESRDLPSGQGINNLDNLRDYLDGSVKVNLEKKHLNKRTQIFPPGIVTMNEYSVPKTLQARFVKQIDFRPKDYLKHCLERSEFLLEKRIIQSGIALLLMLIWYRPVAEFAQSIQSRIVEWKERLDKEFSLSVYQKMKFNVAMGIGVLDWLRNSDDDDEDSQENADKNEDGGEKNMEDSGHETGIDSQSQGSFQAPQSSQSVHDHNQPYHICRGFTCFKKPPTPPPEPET
Potassium channel subfamily K member 3, sequence (O14649 whole entry): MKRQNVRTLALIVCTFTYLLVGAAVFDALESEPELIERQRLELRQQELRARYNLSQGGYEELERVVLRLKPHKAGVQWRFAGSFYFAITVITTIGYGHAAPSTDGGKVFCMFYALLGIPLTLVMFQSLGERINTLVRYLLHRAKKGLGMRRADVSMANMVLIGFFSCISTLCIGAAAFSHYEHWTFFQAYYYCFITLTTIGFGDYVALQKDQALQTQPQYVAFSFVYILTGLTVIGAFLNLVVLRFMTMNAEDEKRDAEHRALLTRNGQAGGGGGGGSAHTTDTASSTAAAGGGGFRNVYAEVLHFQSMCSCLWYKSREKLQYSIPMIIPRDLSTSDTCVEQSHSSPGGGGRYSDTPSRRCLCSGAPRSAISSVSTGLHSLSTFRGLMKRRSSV
Cytochrome P450 2C19, sequence (P33261 whole entry): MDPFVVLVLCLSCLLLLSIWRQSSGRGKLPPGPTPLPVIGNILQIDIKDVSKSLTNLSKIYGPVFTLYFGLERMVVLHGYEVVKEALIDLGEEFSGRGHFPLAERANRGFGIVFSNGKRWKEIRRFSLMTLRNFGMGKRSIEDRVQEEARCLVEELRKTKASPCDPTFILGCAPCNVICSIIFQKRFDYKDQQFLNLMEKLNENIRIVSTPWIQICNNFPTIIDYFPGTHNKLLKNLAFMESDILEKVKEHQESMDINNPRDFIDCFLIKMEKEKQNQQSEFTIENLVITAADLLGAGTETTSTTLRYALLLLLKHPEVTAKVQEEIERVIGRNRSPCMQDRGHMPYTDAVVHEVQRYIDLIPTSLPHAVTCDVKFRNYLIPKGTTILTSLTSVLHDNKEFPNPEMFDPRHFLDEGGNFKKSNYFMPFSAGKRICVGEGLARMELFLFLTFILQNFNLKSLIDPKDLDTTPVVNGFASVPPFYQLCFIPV
Metabotropic glutamate receptor 5, sequence (P31424 whole entry): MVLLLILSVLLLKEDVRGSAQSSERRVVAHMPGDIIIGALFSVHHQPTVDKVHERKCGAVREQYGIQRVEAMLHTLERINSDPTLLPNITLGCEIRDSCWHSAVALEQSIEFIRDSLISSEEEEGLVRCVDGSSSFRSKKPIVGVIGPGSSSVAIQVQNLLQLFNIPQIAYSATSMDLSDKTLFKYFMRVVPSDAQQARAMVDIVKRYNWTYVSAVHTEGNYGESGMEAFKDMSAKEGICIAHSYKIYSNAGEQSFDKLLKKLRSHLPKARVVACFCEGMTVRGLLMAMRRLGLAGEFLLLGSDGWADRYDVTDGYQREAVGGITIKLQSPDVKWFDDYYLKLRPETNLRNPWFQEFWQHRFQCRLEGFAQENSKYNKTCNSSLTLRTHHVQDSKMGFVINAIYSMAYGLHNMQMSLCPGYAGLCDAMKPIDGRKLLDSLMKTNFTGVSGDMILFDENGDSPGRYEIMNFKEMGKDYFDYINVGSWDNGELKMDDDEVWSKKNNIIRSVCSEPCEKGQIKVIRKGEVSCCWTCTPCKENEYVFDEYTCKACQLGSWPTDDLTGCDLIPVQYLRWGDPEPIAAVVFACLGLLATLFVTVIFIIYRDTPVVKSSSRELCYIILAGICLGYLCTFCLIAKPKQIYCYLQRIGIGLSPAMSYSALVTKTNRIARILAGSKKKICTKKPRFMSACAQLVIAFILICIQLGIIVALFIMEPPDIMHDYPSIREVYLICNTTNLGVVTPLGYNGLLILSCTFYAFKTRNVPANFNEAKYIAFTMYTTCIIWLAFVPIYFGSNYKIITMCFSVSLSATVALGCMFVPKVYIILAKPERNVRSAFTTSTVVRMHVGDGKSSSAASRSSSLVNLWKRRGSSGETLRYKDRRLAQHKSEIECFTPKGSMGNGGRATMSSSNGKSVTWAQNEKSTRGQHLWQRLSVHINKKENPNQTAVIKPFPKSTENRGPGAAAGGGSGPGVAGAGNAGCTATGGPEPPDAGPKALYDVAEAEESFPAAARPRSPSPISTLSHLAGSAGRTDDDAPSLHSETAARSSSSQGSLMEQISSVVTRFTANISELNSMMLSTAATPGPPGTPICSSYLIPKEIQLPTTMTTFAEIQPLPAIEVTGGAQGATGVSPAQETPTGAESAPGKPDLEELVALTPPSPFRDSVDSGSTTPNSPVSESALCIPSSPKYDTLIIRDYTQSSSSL
Potassium channel subfamily K member 9, sequence (Q9NPC2 whole entry): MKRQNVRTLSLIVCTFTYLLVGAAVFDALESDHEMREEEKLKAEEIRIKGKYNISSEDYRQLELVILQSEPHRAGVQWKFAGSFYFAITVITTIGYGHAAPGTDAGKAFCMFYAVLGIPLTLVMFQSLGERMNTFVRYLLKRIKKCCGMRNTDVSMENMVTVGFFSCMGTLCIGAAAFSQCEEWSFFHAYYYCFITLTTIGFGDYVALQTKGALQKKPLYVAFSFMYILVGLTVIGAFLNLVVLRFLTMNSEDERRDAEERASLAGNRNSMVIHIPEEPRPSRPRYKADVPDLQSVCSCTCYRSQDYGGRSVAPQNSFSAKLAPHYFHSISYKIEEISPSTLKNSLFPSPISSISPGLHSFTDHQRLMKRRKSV
Nucleotide-binding oligomerization domain-containing protein 2, sequence (Q9HC29 whole entry, the tested form may be a part): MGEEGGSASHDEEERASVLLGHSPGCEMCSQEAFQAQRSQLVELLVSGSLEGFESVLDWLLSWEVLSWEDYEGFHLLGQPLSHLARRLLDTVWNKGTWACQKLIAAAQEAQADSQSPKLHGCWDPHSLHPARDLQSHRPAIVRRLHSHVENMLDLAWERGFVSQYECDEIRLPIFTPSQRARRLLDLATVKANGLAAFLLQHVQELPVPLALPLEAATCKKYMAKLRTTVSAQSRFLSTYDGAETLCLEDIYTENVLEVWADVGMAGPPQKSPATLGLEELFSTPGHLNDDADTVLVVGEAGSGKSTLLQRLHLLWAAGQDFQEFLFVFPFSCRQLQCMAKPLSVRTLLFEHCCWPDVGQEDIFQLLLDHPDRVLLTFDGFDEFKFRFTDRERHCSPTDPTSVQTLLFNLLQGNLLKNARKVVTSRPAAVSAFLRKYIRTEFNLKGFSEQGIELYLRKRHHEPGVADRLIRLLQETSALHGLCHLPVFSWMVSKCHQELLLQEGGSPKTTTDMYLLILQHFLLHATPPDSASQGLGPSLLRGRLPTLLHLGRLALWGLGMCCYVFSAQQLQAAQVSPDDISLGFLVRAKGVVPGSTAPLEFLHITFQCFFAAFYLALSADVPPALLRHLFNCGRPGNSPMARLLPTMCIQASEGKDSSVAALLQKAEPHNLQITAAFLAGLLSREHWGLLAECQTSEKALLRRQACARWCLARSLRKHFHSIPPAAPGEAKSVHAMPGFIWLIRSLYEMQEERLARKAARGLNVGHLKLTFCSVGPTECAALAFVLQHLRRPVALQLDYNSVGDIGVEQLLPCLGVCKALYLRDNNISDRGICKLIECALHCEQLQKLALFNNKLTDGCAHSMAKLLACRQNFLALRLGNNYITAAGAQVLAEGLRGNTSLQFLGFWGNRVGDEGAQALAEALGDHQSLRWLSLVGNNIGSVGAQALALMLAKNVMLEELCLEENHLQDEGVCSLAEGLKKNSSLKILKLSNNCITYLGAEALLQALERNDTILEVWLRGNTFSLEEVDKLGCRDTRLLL
Cytochrome P450 3A4, sequence (P08684 whole entry): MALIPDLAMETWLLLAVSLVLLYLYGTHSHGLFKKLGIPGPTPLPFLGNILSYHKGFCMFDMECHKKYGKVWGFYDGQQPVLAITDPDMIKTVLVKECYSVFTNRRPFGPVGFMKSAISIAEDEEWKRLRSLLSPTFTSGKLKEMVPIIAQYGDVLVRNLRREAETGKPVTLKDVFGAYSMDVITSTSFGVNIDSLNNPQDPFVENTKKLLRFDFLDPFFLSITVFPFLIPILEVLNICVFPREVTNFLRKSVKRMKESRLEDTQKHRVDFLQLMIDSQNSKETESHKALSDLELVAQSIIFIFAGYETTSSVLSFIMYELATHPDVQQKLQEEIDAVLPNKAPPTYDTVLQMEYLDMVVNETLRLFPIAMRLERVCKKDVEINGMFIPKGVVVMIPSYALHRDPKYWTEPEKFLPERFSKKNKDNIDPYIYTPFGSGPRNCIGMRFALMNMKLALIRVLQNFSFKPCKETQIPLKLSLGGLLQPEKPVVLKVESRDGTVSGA

In the case of `COc1ccc(-c2ccc3cc(C(=O)N4CCCC(CO)C4)ccc3c2)c(OC)c1` (centres undefined), in test [1], the IC50 is 9.87 µM (active).

As for `N=C1Sc2ccccc2C2=NCCCN12`, the AC50 is > 70 µM (inactive) in test [2], 6.31 µM (inconclusive) on Cytochrome P450 2C19 and 25.1 µM (inconclusive) at Cytochrome P450 3A4.

`CC(C(=O)Nc1ccc(F)nc1)N(c1ccccc1Cl)S(C)(=O)=O` (centres undefined): the EC50 in [3] is 10 µM (inconclusive).

Regarding `O=C(O)CCCCOc1ccc2cc(Br)c(=O)oc2c1`, the IC50 in test [4] and in [5] was > 100 µM (inactive) each time.

Regarding `CSC1=NS(=O)(=O)c2c(C)nn(C)c2S1`, in test [6], the AC50 is 18.7 µM (active). For the same compound, the IC50 in [7] was 10.7 µM (active); on Large T antigen it was 32.8 µM (active).

Turning to `CCOc1cccc(/C=C/c2ccc3cccc(O)c3n2)c1O`, the IC50 with HEK293 [8] is > 20 µM (inactive); in [9] it was > 100 µM (inactive); in the test on HEK293 [10] it was 11.5 µM (active); in test [14], 4.32 µM (active); with HEK293 [15], 3.71 µM (inactive); in the test on HEK293 [16], > 20 µM (inactive). Moreover, in test [17], the IC50 was 7.66 µM (active). The EC50 (in test [11]; with HEK293 [18]) was > 20 µM (inactive) in each case. Further, in [12], the AC50 was 26 µM (active). Further, the CC50 in test [13] was 35.7 µM (active).

In the case of `Cc1scc(C(=O)N/N=C/c2ccsc2)c1C`, the EC50 in test [19] was > 67.6 µM (inactive).

For the compound `COc1ccccc1C(=O)Nc1cccc(NC(=O)c2cccc3ccccc23)c1`, the IC50 in test [20] is 0.24 µM (active); in test [21] it was 0.003 µM (active).
